From patent US20100311714A1, “1H-IMIDAZO[4,5-c]QUINOLINONE COMPOUNDS” (priority 2009, published 2010)
≈ marks a conversion by molar mass, not a printed value. Where two headings read alike, the source gives them in different places.

What was measured:
[1] = High-throughput equilibrium solubility at pH 6.8; assay type: physicochemical; settings: pH 6.8, aqueous buffer, thermodynamic from solid; read-out: HT-Eq Sol/pH 6.8
Summary of the method: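 Following the procedure of Zhou et al. (2007), compound solubility was determined at pH 6.8.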

[2] = Parallel Artificial Membrane Permeability Assay (PAMPA) at pH 6.8; assay type: physicochemical
Summary of the method: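 Reported as log Pe, membrane permeability was determined by parallel artificial membrane assay at pH 6.8 per Wohnsland–Faller.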

PI3K beta = molecular target: T1, PI3K beta (Homo sapiens, UniProt P42338); test: PI3K beta kinase assay (Kinase-Glo luminescence); assay type: biochemical
T1 construct: for the full-length p110-b subunit are generated and fused by overlapping PCR; His tag (C); made in house; host or cells: baculovirus BV949; Tn5 (Trichoplusia ni) or TiniPro insect cells
T1 sequence (P42338 with tags, fused parts or gaps limits assumed): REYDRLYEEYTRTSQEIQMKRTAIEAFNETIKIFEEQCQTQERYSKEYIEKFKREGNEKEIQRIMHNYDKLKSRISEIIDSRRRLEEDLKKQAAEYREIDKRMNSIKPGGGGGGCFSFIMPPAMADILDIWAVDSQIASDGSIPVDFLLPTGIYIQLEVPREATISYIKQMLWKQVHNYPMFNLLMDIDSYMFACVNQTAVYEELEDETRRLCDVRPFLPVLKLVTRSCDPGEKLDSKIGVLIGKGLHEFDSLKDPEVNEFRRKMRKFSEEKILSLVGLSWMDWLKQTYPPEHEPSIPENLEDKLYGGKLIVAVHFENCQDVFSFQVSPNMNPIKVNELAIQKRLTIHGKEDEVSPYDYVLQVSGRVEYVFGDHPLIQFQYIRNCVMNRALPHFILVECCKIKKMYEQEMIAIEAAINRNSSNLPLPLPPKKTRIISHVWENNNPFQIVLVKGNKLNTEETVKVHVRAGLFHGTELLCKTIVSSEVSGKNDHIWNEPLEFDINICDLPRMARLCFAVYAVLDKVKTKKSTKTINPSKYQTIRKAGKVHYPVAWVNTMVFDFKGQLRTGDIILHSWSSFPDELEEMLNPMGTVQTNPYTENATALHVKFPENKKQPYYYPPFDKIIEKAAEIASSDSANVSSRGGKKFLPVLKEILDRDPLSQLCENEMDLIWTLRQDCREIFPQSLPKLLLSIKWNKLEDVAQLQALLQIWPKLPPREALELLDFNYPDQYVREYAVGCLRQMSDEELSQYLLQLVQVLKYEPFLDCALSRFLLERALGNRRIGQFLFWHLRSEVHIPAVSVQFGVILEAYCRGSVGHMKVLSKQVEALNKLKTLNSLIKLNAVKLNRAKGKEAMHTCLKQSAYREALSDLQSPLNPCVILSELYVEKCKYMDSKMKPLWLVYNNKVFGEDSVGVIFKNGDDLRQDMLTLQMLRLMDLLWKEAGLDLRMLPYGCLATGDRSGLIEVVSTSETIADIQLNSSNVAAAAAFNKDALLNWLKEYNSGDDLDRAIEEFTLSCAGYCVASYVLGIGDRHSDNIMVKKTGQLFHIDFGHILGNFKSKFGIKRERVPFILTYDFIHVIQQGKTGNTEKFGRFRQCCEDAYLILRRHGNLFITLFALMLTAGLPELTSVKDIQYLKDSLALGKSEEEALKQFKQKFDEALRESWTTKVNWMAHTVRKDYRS
Summary of the method: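 Kinase-Glo luminescence read out ATP left after a 60-min room-temperature reaction, started with ATP (1 μM final) on 25 nM His-tagged p85 iSH2–p110β (BV949) plus 10 μg/mL PI substrate in pH 7.5 Tris buffer. Percent inhibition at eight concentrations was fitted to a four-parameter logistic model for IC50.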

mTOR = molecular target: T2, mTOR (Homo sapiens, UniProt P42345); test: Biochemical assay for m-TOR by TR-FRET
T2 construct: purchased Invitrogen Corporation (Carlsbad/Calif., USA) PV4753
T2 sequence (P42345 1360-2549 limits assumed): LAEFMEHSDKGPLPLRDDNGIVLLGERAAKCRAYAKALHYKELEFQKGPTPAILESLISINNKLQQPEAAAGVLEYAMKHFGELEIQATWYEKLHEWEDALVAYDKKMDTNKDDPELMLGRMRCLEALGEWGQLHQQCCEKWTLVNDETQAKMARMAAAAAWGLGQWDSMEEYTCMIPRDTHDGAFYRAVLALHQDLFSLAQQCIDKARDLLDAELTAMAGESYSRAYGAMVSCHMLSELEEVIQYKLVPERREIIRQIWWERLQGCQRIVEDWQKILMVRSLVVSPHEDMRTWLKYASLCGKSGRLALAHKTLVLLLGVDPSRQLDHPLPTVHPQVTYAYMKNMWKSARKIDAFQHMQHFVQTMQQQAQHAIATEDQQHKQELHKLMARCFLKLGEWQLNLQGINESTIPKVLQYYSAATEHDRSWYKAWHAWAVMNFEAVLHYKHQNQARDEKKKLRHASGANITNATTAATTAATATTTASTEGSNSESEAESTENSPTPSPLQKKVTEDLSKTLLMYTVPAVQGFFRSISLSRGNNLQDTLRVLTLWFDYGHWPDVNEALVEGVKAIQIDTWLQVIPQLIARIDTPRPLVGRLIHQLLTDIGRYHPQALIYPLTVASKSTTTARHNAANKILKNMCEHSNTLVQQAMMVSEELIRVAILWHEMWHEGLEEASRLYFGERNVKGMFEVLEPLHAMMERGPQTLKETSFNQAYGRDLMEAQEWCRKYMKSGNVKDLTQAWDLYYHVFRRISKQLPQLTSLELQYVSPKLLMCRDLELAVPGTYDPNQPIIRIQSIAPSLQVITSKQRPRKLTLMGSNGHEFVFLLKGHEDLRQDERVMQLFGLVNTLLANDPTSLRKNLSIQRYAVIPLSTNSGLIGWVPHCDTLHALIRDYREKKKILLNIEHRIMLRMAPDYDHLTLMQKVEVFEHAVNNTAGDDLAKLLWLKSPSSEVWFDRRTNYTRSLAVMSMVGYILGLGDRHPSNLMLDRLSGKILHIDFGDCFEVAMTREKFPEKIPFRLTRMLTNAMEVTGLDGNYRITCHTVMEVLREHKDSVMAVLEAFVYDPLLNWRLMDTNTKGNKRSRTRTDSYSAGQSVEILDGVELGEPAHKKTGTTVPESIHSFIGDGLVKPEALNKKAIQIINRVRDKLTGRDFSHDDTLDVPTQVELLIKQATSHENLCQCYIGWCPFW
Summary of the method: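 mTOR (0.5 nM) phosphorylates GFP-4EBP1 (400 nM) with 8 μM ATP at rt in 50 mM HEPES pH 7.5, 10 mM MnCl2, 50 mM NaCl, 1 mM EGTA, 1 mM DTT; compounds 0.003–10 μM final. EDTA stop with Tb-anti-p4EBP1[pT46] antibody (0.5 nM); TR-FRET read after 15 min against no-enzyme and vehicle controls.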

Row | SMILES | solubility thermodynamic [1] [µg/mL] | HT-perm/logPe pH6.8 [2] | IC50 (PI3K beta; read-out: PI3Kbeta/IC50) [nM] | IC50 (mTOR; read-out: mTOR/IC50) [nM] | HT-Perm logPe pH6.8 [2] | IC50 (PI3K beta; read-out: EPK_PI3Kbeta/IC50) [nM] | IC50 (mTOR; read-out: EPK_mTOR/IC50) [nM]
1 | Cn1c(=O)n(-c2cccnc2F)c2c3cc(-c4cnc(N)c(C(F)(F)F)c4)ccc3ncc21 [Example 6.2, 8-(6-Amino-5-trifluoromethyl-pyridin-3-yl)-1-(2-fluoro-pyridin-3-yl)-3-methyl-1,3-dihydro-imidazo[4,5-c]quinolin-2-one] | 6 (≈ 13.2 µM) | −3.8 | 7 | 15 | – | – | –
2 | Cc1cccnc1-n1c(=O)n(C)c2cnc3ccc(-c4cnc(N)c(C(F)(F)F)c4)cc3c21 [Example 3.12, 8-(6-Amino-5-trifluoromethyl-pyridin-3-yl)-3-methyl-1-(3-methyl-pyridin-2-yl)-1,3-dihydro-imidazo[4,5-c]quinolin-2-one] | 12 (≈ 26.6 µM) | −4.0 | 109 | 389 | – | – | –
3 | Cc1nc(F)ccc1-n1c(=O)n(C)c2cnc3ccc(-c4cnc(N)c(C(F)(F)F)c4)cc3c21 [Example 7.1, 8-(6-Amino-5-trifluoromethyl-pyridin-3-yl)-1-(6-fluoro-2-methyl-pyridin-3-yl)-3-methyl-1,3-dihydro-imidazo[4,5-c]quinolin-2-one] | 47 (≈ 100 µM) | −3.8 | 7 | 8 | – | – | –
4 | CCOc1ccc(-c2ccc3ncc4c(c3c2)n(-c2cccnc2F)c(=O)n4C)cn1 [Example 6.1, 8-(6-Ethoxy-pyridin-3-yl)-1-(2-fluoro-pyridin-3-yl)-3-methyl-1,3-dihydro-imidazo[4,5-c]quinolin-2-one] | 2 (≈ 4.81 µM) | −3.9 | 223 | 107 | – | – | –
5 | CNc1ncc(-c2ccc3ncc4c(c3c2)n(-c2ccc(N3CCC(O)C3)nc2C)c(=O)n4C)cn1 (stereo not drawn) [Example 27.2, 1-[6-(3-Hydroxy-pyrrolidin-1-yl)-2-methyl-pyridin-3-yl]-3-methyl-8-(2-methylamino-pyrimidin-5-yl)-1,3-dihydro-imidazo[4,5-c]quinolin-2-one] | 67 (≈ 139 µM) | – | – | – | −5.1 | 124 | 6
6 | CNc1ncc(-c2ccc3ncc4c(c3c2)n(-c2ccc(N3CC(O)C3)nc2C)c(=O)n4C)cc1C(F)(F)F [Example 29.4, 1-[6-(3-Hydroxy-azetidin-1-yl)-2-methyl-pyridin-3-yl]-3-methyl-8-(6-methylamino-5-trifluoromethyl-pyridin-3-yl)-1,3-dihydro-imidazo[4,5-c]quinolin-2-one] | 44 (≈ 82.2 µM) | – | – | – | −5 | 69 | 12
7 | COc1cc(-c2ccc3ncc4c(c3c2)n(-c2ccc(N3CC(O)C3)nc2C)c(=O)n4C)cnc1CO [Example 29.5, 1-[6-(3-Hydroxy-azetidin-1-yl)-2-methyl-pyridin-3-yl]-8-(6-hydroxymethyl-5-methoxy-pyridin-3-yl)-3-methyl-1,3-dihydro-imidazo[4,5-c]quinolin-2-one] | 256 (≈ 513 µM) | – | – | – | −7.8 | 277 | 61
8 | CCNc1cc(-c2ccc3ncc4c(c3c2)n(-c2cccnc2C)c(=O)n4C)cnc1CO [Example 2.31, 8-(5-Ethylamino-6-hydroxymethyl-pyridin-3-yl)-3-methyl-1-(2-methyl-pyridin-3-yl)-1,3-dihydro-imidazo[4,5-c]quinolin-2-one] | 27 (≈ 61.3 µM) | – | – | – | −5.8 | 67 | < 3
9 | CNc1cncc(-c2ccc3ncc4c(c3c2)n(-c2cccnc2C)c(=O)n4C)c1 [Example 2.26, 3-Methyl-8-(5-methylamino-pyridin-3-yl)-1-(2-methyl-pyridin-3-yl)-1,3-dihydro-imidazo[4,5-c]quinolin-2-one] | 115 (≈ 290 µM) | – | – | – | −5.3 | 31 | 22
10 | COCc1ncc(-c2ccc3ncc4c(c3c2)n(-c2ccc(N3CCC3)nc2C)c(=O)n4C)cc1OC(C)C [Example 23.2, 1-(6-Azetidin-1-yl-2-methyl-pyridin-3-yl)-8-(5-isopropoxy-6-methoxymethyl-pyridin-3-yl)-3-methyl-1,3-dihydro-imidazo[4,5-c]quinolin-2-one] | 264 (≈ 503 µM) | – | – | – | −3.7 | 193 | 44
11 | Cc1nc(N2CCC2)ccc1-n1c(=O)n(C)c2cnc3ccc(-c4cncc(OC(C)C)c4)cc3c21 [Example 23.9, 1-(6-Azetidin-1-yl-2-methyl-pyridin-3-yl)-8-(5-isopropoxy-pyridin-3-yl)-3-methyl-1,3-dihydro-imidazo[4,5-c]quinolin-2-one] | 35 (≈ 72.8 µM) | – | – | – | −3.7 | 171 | 37
12 | CCOc1cc(-c2ccc3ncc4c(c3c2)n(-c2ccc(F)nc2C)c(=O)n4C)cnc1COC [Example 7.5, 8-(5-Ethoxy-6-methoxymethyl-pyridin-3-yl)-1-(6-fluoro-2-methyl-pyridin-3-yl)-3-methyl-1,3-dihydro-imidazo[4,5-c]quinolin-2-one] | 94 (≈ 199 µM) | – | – | – | −3.7 | 152 | 88
13 | CCNc1ncc(-c2ccc3ncc4c(c3c2)n(-c2ccc(C(C)(C)O)nc2C)c(=O)n4C)cn1 [Example 31.7, 8-(2-Ethylamino-pyrimidin-5-yl)-1-[6-(1-hydroxy-1-methyl-ethyl)-2-methyl-pyridin-3-yl]-3-methyl-1,3-dihydro-imidazo[4,5-c]quinolin-2-one] | 14 (≈ 29.8 µM) | – | – | – | −4.6 | 625 | 21
14 | Cc1nc(C(F)(F)F)ccc1-n1c(=O)n(C)c2cnc3ccc(-c4cncc(C(C)(C)O)c4)cc3c21 [Example 33.1, 8-[5-(1-Hydroxy-1-methyl-ethyl)-pyridin-3-yl]-3-methyl-1-(2-methyl-6-trifluoromethyl-pyridin-3-yl)-1,3-dihydro-imidazo[4,5-c]quinolin-2-one] | 423 (≈ 857 µM) | – | – | – | −4.5 | 69 | 92
15 | CCOc1cc(-c2ccc3ncc4c(c3c2)n(-c2cccnc2C)c(=O)n4C)cnc1COC [Example 2.28, 8-(5-Ethoxy-6-methoxymethyl-pyridin-3-yl)-3-methyl-1-(2-methyl-pyridin-3-yl)-1,3-dihydro-imidazo[4,5-c]quinolin-2-one] | 51 (≈ 112 µM) | – | – | – | −4.3 | 563 | 58
